Literature values in patent US9744163B2, “Compositions of a polyorthoester and an aprotic solvent” (Heron Therapeutics, Inc., priority 2013, dated 2017).

- Water Miscibility (solubility in water): (8.3 g/100 ml)
Compound: CCOC(C)=O [ethyl acetate]
